{"source": "patent US9963442B2", "about": "“Pyridones as herbicides” (E I DU PONT DE NEMOURS AND COMPANY, priority 2014, dated 2018)", "type_in_all_cases": "in vivo", "key": {"[1]": {"system": "barnyardgrass (Echinochloa crus-galli)", "assay": "Test A postemergence application", "settings": "approx. 10 days", "method_in_brief": "(§1)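 Compounds in non-phytotoxic solvent with surfactant applied as directed soil spray preemergence or postemergence to plants 2–10 cm, one- to two-leaf stage, in loam/sand. Injury rated visually versus untreated controls after about 10 days in greenhouse, 0 (no effect) to 100 (complete control).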"}, "[2]": {"system": "blackgrass (Alopecurus myosuroides)", "assay": "Test A postemergence application", "settings": "approx. 10 days", "method_in_brief": "as §1"}, "[3]": {"system": "pigweed (Amaranthus retroflexus)", "assay": "Test A postemergence application", "settings": "approx. 10 days", "method_in_brief": "as §1"}, "[4]": {"system": "Italian ryegrass (Lolium multiflorum)", "assay": "Test A postemergence application", "settings": "approx. 10 days", "method_in_brief": "as §1"}, "[5]": {"system": "giant foxtail (Setaria faberii)", "assay": "Test A postemergence application", "settings": "approx. 10 days", "method_in_brief": "as §1"}, "kochia (Kochia scoparia)": {"system": "kochia (Kochia scoparia)", "assay": "Test A postemergence application", "settings": "approx. 10 days", "method_in_brief": "as §1"}, "[6]": {"system": "wheat (Triticum aestivum)", "assay": "Test A postemergence application", "settings": "approx. 10 days", "method_in_brief": "as §1"}, "corn (Zea mays)": {"system": "corn (Zea mays)", "assay": "Test A postemergence application", "settings": "approx. 10 days", "method_in_brief": "as §1"}, "[7]": {"system": "galium (catchweed bedstraw, Galium aparine)", "assay": "Test A postemergence application", "settings": "approx. 10 days", "method_in_brief": "as §1"}, "[8]": {"system": "ragweed (common ragweed, Ambrosia elatior)", "assay": "Test A postemergence application", "settings": "approx. 10 days", "method_in_brief": "as §1"}, "[9]": {"system": "oilseed rape (Brassica napus)", "assay": "Test C postemergence", "settings": "scale 0 to 100, 0 is no effect, 100 is complete control", "method_in_brief": "(§2)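 Each species was evaluated by eye against untreated controls at 13 to 15 days post-treatment and rated 0–100, with 100 indicating complete control. Applications were made preemergence to seeded soil or postemergence to seedlings at the 1- to 4-leaf stage, using a surfactant-containing solvent formulation.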"}, "[10]": {"system": "chickweed (common chickweed, Stellaria media)", "assay": "Test C postemergence", "settings": "scale 0 to 100, 0 is no effect, 100 is complete control", "method_in_brief": "as §2"}, "[11]": {"system": "lambsquarters (Chenopodium album)", "assay": "Test C postemergence", "settings": "scale 0 to 100, 0 is no effect, 100 is complete control", "method_in_brief": "as §2"}, "[12]": {"system": "pigweed (Amaranthus retroflexus)", "assay": "Test C postemergence", "settings": "scale 0 to 100, 0 is no effect, 100 is complete control", "method_in_brief": "as §2"}, "[13]": {"system": "large (Lg) crabgrass (Digitaria sanguinalis)", "assay": "Test C postemergence", "settings": "scale 0 to 100, 0 is no effect, 100 is complete control", "method_in_brief": "as §2"}, "[14]": {"system": "ragweed (common ragweed, Ambrosia elatior)", "assay": "Test C postemergence", "settings": "scale 0 to 100, 0 is no effect, 100 is complete control", "method_in_brief": "as §2"}, "wild oat (Avena fatua)": {"system": "wild oat (Avena fatua)", "assay": "Test C postemergence", "settings": "scale 0 to 100, 0 is no effect, 100 is complete control", "method_in_brief": "as §2"}}}
{"compound": "O=c1cccc(Oc2ncc(Cl)cn2)n1-c1ccc(C(F)(F)F)cn1", "note": "[Compound 7]", "values": [{"measurement": "Plant response rating (0 to 100 scale, 0 no effect, 100 complete control), Barnyardgrass", "setting": "[1]; 31 g ai/ha", "result": 20}, {"measurement": "Plant response rating (0 to 100 scale, 0 no effect, 100 complete control), Barnyardgrass", "setting": "[1]; 125 g ai/ha", "result": 50}, {"measurement": "Plant response rating (0 to 100 scale, 0 no effect, 100 complete control), Blackgrass", "setting": "[2]; 31 g ai/ha", "result": 10}, {"measurement": "Plant response rating (0 to 100 scale, 0 no effect, 100 complete control), Blackgrass", "setting": "[2]; 125 g ai/ha", "result": 30}, {"measurement": "Plant response rating (0 to 100 scale, 0 no effect, 100 complete control), Pigweed", "setting": "[3]; 31 g ai/ha", "result": 70}, {"measurement": "Plant response rating (0 to 100 scale, 0 no effect, 100 complete control), Pigweed", "setting": "[3]; 125 g ai/ha", "result": 90}, {"measurement": "Plant response rating (0 to 100 scale, 0 no effect, 100 complete control), Ryegrass, Italian", "setting": "[4]; 31 g ai/ha", "result": 0}, {"measurement": "Plant response rating (0 to 100 scale, 0 no effect, 100 complete control), Ryegrass, Italian", "setting": "[4]; 125 g ai/ha", "result": 20}, {"measurement": "Plant response rating (0 to 100 scale, 0 no effect, 100 complete control), Foxtail, Giant", "setting": "[5]; 31 g ai/ha", "result": 20}, {"measurement": "Plant response rating (0 to 100 scale, 0 no effect, 100 complete control), Foxtail, Giant", "setting": "[5]; 125 g ai/ha", "result": 50}, {"measurement": "Plant response rating (0 to 100 scale, 0 no effect, 100 complete control), Kochia", "setting": "kochia (Kochia scoparia); 31 g ai/ha", "result": 80}, {"measurement": "Plant response rating (0 to 100 scale, 0 no effect, 100 complete control), Kochia", "setting": "kochia (Kochia scoparia); 125 g ai/ha", "result": 90}, {"measurement": "Plant response rating (0 to 100 scale, 0 no effect, 100 complete control), Wheat", "setting": "[6]; 31 g ai/ha", "result": 0}, {"measurement": "Plant response rating (0 to 100 scale, 0 no effect, 100 complete control), Wheat", "setting": "[6]; 125 g ai/ha", "result": 20}, {"measurement": "Plant response rating (0 to 100 scale, 0 no effect, 100 complete control), Corn", "setting": "corn (Zea mays); 31 g ai/ha", "result": 10}, {"measurement": "Plant response rating (0 to 100 scale, 0 no effect, 100 complete control), Corn", "setting": "corn (Zea mays); 125 g ai/ha", "result": 20}, {"measurement": "Plant response rating (0 to 100 scale, 0 no effect, 100 complete control), Galium", "setting": "[7]; 31 g ai/ha", "result": 50}, {"measurement": "Plant response rating (0 to 100 scale, 0 no effect, 100 complete control), Galium", "setting": "[7]; 125 g ai/ha", "result": 90}, {"measurement": "Plant response rating (0 to 100 scale, 0 no effect, 100 complete control), Ragweed", "setting": "[8]; 31 g ai/ha", "result": 30}, {"measurement": "Plant response rating (0 to 100 scale, 0 no effect, 100 complete control), Ragweed", "setting": "[8]; 125 g ai/ha", "result": 60}, {"measurement": "Plant response rating, Oilseed Rape", "setting": "[9]; 16 g ai/ha", "result": 20}, {"measurement": "Plant response rating, Oilseed Rape", "setting": "[9]; 31 g ai/ha", "result": 35}, {"measurement": "Plant response rating, Oilseed Rape", "setting": "[9]; 62 g ai/ha", "result": 40}, {"measurement": "Plant response rating, Oilseed Rape", "setting": "[9]; 125 g ai/ha", "result": 35}, {"measurement": "Plant response rating, Chickweed", "setting": "[10]; 16 g ai/ha", "result": 0}, {"measurement": "Plant response rating, Chickweed", "setting": "[10]; 31 g ai/ha", "result": 20}, {"measurement": "Plant response rating, Chickweed", "setting": "[10]; 62 g ai/ha", "result": 35}, {"measurement": "Plant response rating, Chickweed", "setting": "[10]; 125 g ai/ha", "result": 55}, {"measurement": "Plant response rating, Lambsquarters", "setting": "[11]; 16 g ai/ha", "result": 25}, {"measurement": "Plant response rating, Lambsquarters", "setting": "[11]; 31 g ai/ha", "result": 65}, {"measurement": "Plant response rating, Lambsquarters", "setting": "[11]; 62 g ai/ha", "result": 65}, {"measurement": "Plant response rating, Lambsquarters", "setting": "[11]; 125 g ai/ha", "result": 75}, {"measurement": "Plant response rating, Pigweed", "setting": "[12]; 16 g ai/ha", "result": 70}, {"measurement": "Plant response rating, Pigweed", "setting": "[12]; 31 g ai/ha", "result": 65}, {"measurement": "Plant response rating, Pigweed", "setting": "[12]; 62 g ai/ha", "result": 85}, {"measurement": "Plant response rating, Pigweed", "setting": "[12]; 125 g ai/ha", "result": 80}, {"measurement": "Plant response rating, Crabgrass, Large", "setting": "[13]; 16 g ai/ha", "result": 10}, {"measurement": "Plant response rating, Crabgrass, Large", "setting": "[13]; 31 g ai/ha", "result": 10}, {"measurement": "Plant response rating, Crabgrass, Large", "setting": "[13]; 62 g ai/ha", "result": 15}, {"measurement": "Plant response rating, Crabgrass, Large", "setting": "[13]; 125 g ai/ha", "result": 15}, {"measurement": "Plant response rating, Ragweed", "setting": "[14]; 16 g ai/ha", "result": 25}, {"measurement": "Plant response rating, Ragweed", "setting": "[14]; 31 g ai/ha", "result": 30}, {"measurement": "Plant response rating, Ragweed", "setting": "[14]; 62 g ai/ha", "result": 35}, {"measurement": "Plant response rating, Ragweed", "setting": "[14]; 125 g ai/ha", "result": 55}, {"measurement": "Plant response rating, Oat, Wild", "setting": "wild oat (Avena fatua); 16 g ai/ha", "result": 0}, {"measurement": "Plant response rating, Oat, Wild", "setting": "wild oat (Avena fatua); 31 g ai/ha", "result": 0}, {"measurement": "Plant response rating, Oat, Wild", "setting": "wild oat (Avena fatua); 62 g ai/ha", "result": 5}, {"measurement": "Plant response rating, Oat, Wild", "setting": "wild oat (Avena fatua); 125 g ai/ha", "result": 5}]}
